Test results as given in patent US11845742B2, “Therapeutic compounds and methods to treat infection” (priority 2017, dated 2023).
In brackets after ≈: the same amount, converted by molar mass. Where two headings read alike, the source gives them in different places.

What was measured:
[1] = test system: P. Aeruginosa PAO1; experiment: Intrinsic MIC assay (broth microdilution), P. aeruginosa PAO1; assay type: cell-based, Pseudomonas aeruginosa; conditions: for MIC: Pseudomonas aeruginosa, read-out: Intrinsic MIC; for Intrinsic MIC, second value printed in parentheses: not explained
Method: (§1) MIC assays were conducted in accordance with Clinical and Laboratory Standards Institute (CLSI) guidelines for broth microdilution.
(§2) The intrinsic MIC of the experimental EPIs was tested with the method described. The 2-fold serial dilution begins with 100 μg/mL of tested compound in the first column of the 96-well plates. The following Gram-negative bacterial strains were included in these assays: • Escherichia coli ATCC 25922 • Klebsiella pneumoniae ATCC 13883 and ATCC 10031 • Pseudomonas aeruginosa ATCC 27853. • Pseudomonas aeruginosa PAO1 • Acinetobacter baumannii ATCC 19606

[2] = test system: K. pneumoniae ATCC 10031; experiment: Intrinsic MIC assay (broth microdilution), K. pneumoniae; assay type: cell-based, Klebsiella pneumoniae; conditions: Klebsiella pneumoniae
Method: as §1, §2

[3] = test system: P. Aeruginosa PAO1; experiment: MIC assay in the presence of a bacterial efflux pump inhibitor (EPI), P. aeruginosa PAO1; assay type: cell-based, Pseudomonas aeruginosa; conditions: in the presence of 12.5 μg/ml of N-(((2S,4R)-4-(aminomethyl)pyrrolidin-2-yl)methyl)-6-(4-fluorophenyl)-1H-indole-2-carboxamide
Method: The ability of a compound to produce an antibiotic effect can be determined using a method as described in Example 11. Data for representative compounds used in combination with the bacterial efflux pump inhibitor (EPI) N-(((2S,4R)-4-(aminomethyl)pyrrolidin-2-yl)methyl)-6-(4-fluorophenyl)-1H-indole-2-carboxamide is shown in Table 1.
as §1
The EPI assay for the purposes of these studies represents a MIC assay in which the MIC of the antibiotic against the bacteria is tested in the presence of an experimental efflux pump inhibitor (EPI). The highest concentration of the EPI present in the assay typically is ½ of the intrinsic MIC of the compound. […] Using serial dilutions of the EPI, its enhancement of antibiotic activity was then evaluated. The relative EPI activity was decided by comparing the MIC of the antibiotic in the presence of the EPI compound with the intrinsic MIC of the antibiotic alone. For comparative purposes, we generally used EPIs at concentration of 12.5 and 6.25 μg/ml against varying concentration of our test antibiotic.

[4] = test system: A. baumannii ATCC 19606; experiment: Intrinsic MIC assay (broth microdilution), A. baumannii; assay type: cell-based, Acinetobacter baumannii; conditions: Acinetobacter baumannii
Method: as §1, §2

[5] = test system: E. coli ATCC 25922; experiment: Intrinsic MIC assay (broth microdilution), E. coli; assay type: cell-based, Escherichia coli; conditions: Escherichia coli
Method: as §1, §2

[6] = P. Aeruginosa PAO1, without EPI
[7] = ATCC10031, K. pneumoniae ATCC 10031, read-out: Intrinsic MIC
[8] = ATCC19606, A. baumannii ATCC 19606, read-out: Intrinsic MIC
[9] = ATCC25922, E. coli ATCC 25922, read-out: Intrinsic MIC
[10] = 18 h, P. Aeruginosa PAO1, without EPI
[11] = ATCC10031, read-out: Intrinsic MIC
[12] = ATCC19606, read-out: Intrinsic MIC
[13] = ATCC25922, read-out: Intrinsic MIC

Structure (SMILES)	Intrinsic MIC [1, 6] [µg/mL]	MIC [2, 7] [µg/mL]	MIC in the Presence of EPI* [3] [µg/mL]	MIC [4, 8] [µg/mL]	MIC [5, 9] [µg/mL]	MIC [1, 10] [µg/mL]	MIC ([1]; PAO1, 18 h) [µg/mL]	MIC [2, 11] [µg/mL]	MIC [4, 12] [µg/mL]	MIC [5, 13] [µg/mL]	Intrinsic MIC, second value printed in parentheses [1, 6] [µg/mL]
CC(N)c1cc2c(Cl)cc(Cl)cc2[nH]1 (stereo not shown) [Example 15, 1-(4,6-Dichloro-1H-indol-2-yl)ethan-1-amine]	256	64 (≈ 279 µM)	16	32 (≈ 140 µM)	128 (≈ 559 µM)						
CC(c1cc2cc(Br)ccc2[nH]1)N(C)C (stereo not shown) [Example 16, 1-(5-Bromo-1H-indol-2-yl)-N,N-dimethylethan-1-amine]		256 (≈ 958 µM)	64	128 (≈ 479 µM)	256 (≈ 958 µM)	256 (≈ 958 µM)					
CC(N)c1cc2cc(F)c(F)cc2[nH]1 (stereo not shown) [Example 17, 1-(5,6-Difluoro-1H-indol-2-yl)ethan-1-amine]	256	128 (≈ 652 µM)	8	128 (≈ 652 µM)	256 (≈ 1300 µM)						
NC1CCc2c1[nH]c1ccc(Br)cc21 (stereo not shown) [Example 18, 7-Bromo-1,2,3,4-tetrahydrocyclopenta[b]indol-3-amine]		32 (≈ 127 µM)	2	64 (≈ 255 µM)	32 (≈ 127 µM)	128 (≈ 510 µM)					
NC1CCCCc2c1[nH]c1ccc(Br)cc21 (stereo not shown) [Example 19, 2-Bromo-5,6,7,8,9,10-hexahydrocyclohepta[b]indol-6-amine]		16 (≈ 57.3 µM)	4	16 (≈ 57.3 µM)	16 (≈ 57.3 µM)	128 (≈ 458 µM)					
NC1CCCCc2c1[nH]c1ccc(Cl)c(Cl)c21 (stereo not shown) [Example 20, 1,2-Dichloro-5,6,7,8,9,10-hexahydrocyclohepta[b]indol-6-amine hydrochloric acid]			1				32 (≈ 119 µM)	2 (≈ 7.43 µM)	8 (≈ 29.7 µM)	8 (≈ 29.7 µM)	
NC1CCCCc2c1[nH]c1cc(Cl)c(Cl)cc21 (stereo not shown) [Example 21, 2,3-Dichloro-5,6,7,8,9,10-hexahydrocyclohepta[b]indol-6-amine hydrochloric acid]			32				256 (≈ 951 µM)	8 (≈ 29.7 µM)	16 (≈ 59.4 µM)	16 (≈ 59.4 µM)	
NC1CCc2c1[nH]c1ccc(Cl)c(Cl)c21 (stereo not shown) [Example 22, 7,8-Dichloro-1,2,3,4-tetrahydrocyclopenta[b]indol-3-amine]	32	8 (≈ 33.2 µM)	1	8 (≈ 33.2 µM)	16 (≈ 66.4 µM)						
NC1CCc2c1[nH]c1cc(Cl)c(Cl)cc21 (stereo not shown) [Example 23, 6,7-Dichloro-1,2,3,4-tetrahydrocyclopenta[b]indol-3-amine]		8 (≈ 33.2 µM)	8	16 (≈ 66.4 µM)	16 (≈ 66.4 µM)	64 (≈ 265 µM)					
CC(NCCCN)c1cc2cc(Br)ccc2[nH]1 (stereo not shown) [Example 24, N^1-(1-(5-Bromo-1H-indol-2-yl)ethyl)propane-1,3-diamine]		64 (≈ 216 µM)		256 (≈ 864 µM)		64 (≈ 216 µM)					128
CC(NCCCNC(=O)c1cc(Cl)c(Cl)s1)c1cc2cc(Br)ccc2[nH]1 (stereo not shown) [Example 25, N-(3-((1-(5-Bromo-1H-indol-2-yl)ethyl)amino)propyl)-4,5-dichlorothiophene-2-carboxamide]		1 (≈ 2.1 µM)	16	16 (≈ 33.7 µM)	8 (≈ 16.8 µM)	> 256					
CC(NCCCNC(=O)c1ccc(Cl)o1)c1cc2cc(Br)ccc2[nH]1 (stereo not shown) [Example 26, N-(3-((1-(5-Bromo-1H-indol-2-yl)ethyl)amino)propyl)-5-chlorofuran-2-carboxamide]		16 (≈ 37.7 µM)	16	128 (≈ 301 µM)	64 (≈ 151 µM)	> 256					
CC(NCCCNC(=O)c1ccc(Cl)s1)c1cc2cc(Br)ccc2[nH]1 (stereo not shown) [Example 27, N-(3-((1-(5-Bromo-1H-indol-2-yl)ethyl)amino)propyl)-5-chlorothiophene-2-carboxamide]		8 (≈ 18.1 µM)	64			32 (≈ 72.6 µM)					> 256
NCCCNC1CCCCc2c1[nH]c1ccc(Br)cc21 (stereo not shown) [Example 28, N^1-(2-Bromo-5,6,7,8,9,10-hexahydrocyclohepta[b]indol-6-yl)propane-1,3-diamine]		8 (≈ 23.8 µM)		32 (≈ 95.2 µM)	16 (≈ 47.6 µM)	64 (≈ 190 µM)					32
NCCCNC1CCc2c1[nH]c1ccc(Br)cc21 (stereo not shown) [Example 29, N^1-(7-Bromo-1,2,3,4-tetrahydrocyclopenta[b]indol-3-yl)propane-1,3-diamine]		32 (≈ 104 µM)		256 (≈ 831 µM)	64 (≈ 208 µM)	64 (≈ 208 µM)					128
